# According to patent publication US11331299B2, “Medicinal use of serrulatane diterpenes” (The University of Sydney, priority 2016, dated 2022):
# pEC50, pIC50: −log10 of the molar value. Read-outs that look alike come from different tables or passages of the source.
# Test system: 280 human cancer cell lines
# Assay: OncoPanel cell proliferation assay (10-day)
# Format: cell-based
# Conditions: for pEC50: read-out: Cell Count EC50; for pIC50: read-out: Cell Count IC50
# [1] = Homo sapiens, 22Rv1, 22Rv1, Prostate
# [2] = Homo sapiens, 786-0, 786-O, Kidney
# [3] = Homo sapiens, A7, Skin (Melanoma)
# [4] = Homo sapiens, A101D, Skin (Melanoma)
# [5] = Homo sapiens, A 172, A172, CNS - Glioma
# [6] = Homo sapiens, A253, A-253, Head and Neck
# [7] = Homo sapiens, A388, Head and Neck
# [8] = Homo sapiens, A498, A498, Kidney
# [9] = Homo sapiens, A673, A-673, Soft Tissue - Sarcoma
# [10] = Homo sapiens, A704, A-704, Kidney
# [11] = Homo sapiens, A-375, A375, Skin (Melanoma)
# [12] = Homo sapiens, A-427, A427, Lung - NSCLC
# [13] = Homo sapiens, A-431, A431, Head and Neck
# [14] = Homo sapiens, AN3-CA, AN3 CA, Female GU - Uterus
# [15] = Homo sapiens, ARH-77, ARH-77, Myeloma
# [16] = Homo sapiens, ASPC1, AsPC-1, Pancreas
# [17] = Homo sapiens, AU565, AU565, Breast
# [18] = Homo sapiens, BCP-1, BCP-1, Lymphoma
# [19] = Homo sapiens, BE(2)-C, BE(2)C, CNS - Neuroblastoma
# [20] = Homo sapiens, BFTC-905, BFTC-905, Bladder
# [21] = Homo sapiens, BHT-101, BHT-101, Endocrine - Thyroid
# [22] = Homo sapiens, BM-1604, BM-1604, Prostate
# [23] = Homo sapiens, BPH-1, BPH1, Prostate
# [24] = Homo sapiens, BT-20, BT20, Breast
compound,measurement,setting,value
"CC(C)=CCC[C@@H]1C(O)Oc2c(C)cc(O)c3c2[C@H]1CC[C@H]3C (stereo partly shown) [Compound 2, 5,18-epoxyserrulat-14-en-8,18-diol]","Number of cell types, GI Activity Potent","GI50 range 0.03-0.099 μM, of 280 cell types",1
same,"Number of cell types, GI Activity moderately potent","GI50 range 0.1-0.99 μM, of 280 cell types",1
same,"Number of cell types, GI Activity Strong","GI50 range 1-2.99 μM, of 280 cell types",8
same,"Number of cell types, GI Activity moderately strong","GI50 range 3-9.99 μM, of 280 cell types",110
same,"Number of cell types, GI Activity weak","GI50 range 10-30.00 μM, of 280 cell types",118
same,"Number of cell types, GI Activity very weak","GI50 range >30 μM, of 280 cell types",42
same,GI50,"Homo sapiens, 10 cell lines with potent to strong activity, read-out: GI50",0.06 to 2.96 µM
same,pEC50,[1],4.94
same,GI50,"Homo sapiens, 22Rv1, 22Rv1, Prostate, read-out: Cell Count GI50",11.3 µM
same,pIC50,[1],4.94
same,pEC50,"Homo sapiens, 647-V, Bladder",4.95
same,GI50,"Homo sapiens, 647-V, Bladder, read-out: Cell Count GI50",11.2 µM
same,pIC50,"Homo sapiens, 647-V, Bladder",4.95
same,pEC50,"Homo sapiens, 769-P, Kidney",5.16
same,GI50,"Homo sapiens, 769-P, Kidney, read-out: Cell Count GI50",6.94 µM
same,pIC50,"Homo sapiens, 769-P, Kidney",5.16
same,pEC50,[2],4.55
same,GI50,"Homo sapiens, 786-0, 786-O, Kidney, read-out: Cell Count GI50",27.9 µM
same,pIC50,[2],4.55
same,pEC50,"Homo sapiens, 5637, Bladder",< 4.52
same,GI50,"Homo sapiens, 5637, Bladder, read-out: Cell Count GI50",> 30 µM
same,pIC50,"Homo sapiens, 5637, Bladder",< 4.52
same,pEC50,[3],5.26
same,GI50,"Homo sapiens, A7, Skin (Melanoma), read-out: Cell Count GI50",5.6 µM
same,pIC50,[3],5.25
same,pEC50,[4],< 4.52
same,GI50,"Homo sapiens, A101D, Skin (Melanoma), read-out: Cell Count GI50",> 30 µM
same,pIC50,[4],< 4.52
same,pEC50,[5],5.04
same,GI50,"Homo sapiens, A 172, A172, CNS - Glioma, read-out: Cell Count GI50",8.93 µM
same,pIC50,[5],5.04
same,pEC50,[6],4.55
same,GI50,"Homo sapiens, A253, A-253, Head and Neck, read-out: Cell Count GI50",28.7 µM
same,pIC50,[6],4.54
same,pEC50,[7],4.87
same,GI50,"Homo sapiens, A388, Head and Neck, read-out: Cell Count GI50",13.4 µM
same,pIC50,[7],4.87
same,pEC50,[8],4.88
same,GI50,"Homo sapiens, A498, A498, Kidney, read-out: Cell Count GI50",13.2 µM
same,pIC50,[8],4.88
same,pEC50,"Homo sapiens, A549, A549, Lung - NSCLC",4.66
same,GI50,"Homo sapiens, A549, A549, Lung - NSCLC, read-out: Cell Count GI50",21.9 µM
same,pEC50,[9],4.97
same,GI50,"Homo sapiens, A673, A-673, Soft Tissue - Sarcoma, read-out: Cell Count GI50",11.1 µM
same,pIC50,[9],4.95
same,pEC50,[10],< 4.52
same,GI50,"Homo sapiens, A704, A-704, Kidney, read-out: Cell Count GI50",> 30 µM
same,pIC50,[10],< 4.52
same,pEC50,[11],5.19
same,GI50,"Homo sapiens, A-375, A375, Skin (Melanoma), read-out: Cell Count GI50",6.44 µM
same,pIC50,[11],5.19
same,pEC50,[12],4.95
same,GI50,"Homo sapiens, A-427, A427, Lung - NSCLC, read-out: Cell Count GI50",11.2 µM
same,pIC50,[12],4.95
same,pEC50,[13],< 4.52
same,GI50,"Homo sapiens, A-431, A431, Head and Neck, read-out: Cell Count GI50",> 30 µM
same,pIC50,[13],< 4.52
same,pEC50,"Homo sapiens, ACHN, Kidney",5.06
same,GI50,"Homo sapiens, ACHN, Kidney, read-out: Cell Count GI50",8.76 µM
same,pIC50,"Homo sapiens, ACHN, Kidney",5.06
same,pEC50,"Homo sapiens, AGS, Stomach",5.33
same,GI50,"Homo sapiens, AGS, Stomach, read-out: Cell Count GI50",4.69 µM
same,pIC50,"Homo sapiens, AGS, Stomach",5.33
same,pEC50,[14],4.95
same,GI50,"Homo sapiens, AN3-CA, AN3 CA, Female GU - Uterus, read-out: Cell Count GI50",11.1 µM
same,pIC50,[14],4.95
same,pEC50,[15],5.02
same,GI50,"Homo sapiens, ARH-77, ARH-77, Myeloma, read-out: Cell Count GI50",9.57 µM
same,pIC50,[15],5.02
same,pEC50,[16],4.85
same,GI50,"Homo sapiens, ASPC1, AsPC-1, Pancreas, read-out: Cell Count GI50",13.8 µM
same,pIC50,[16],4.85
same,pEC50,[17],5.19
same,GI50,"Homo sapiens, AU565, AU565, Breast, read-out: Cell Count GI50",6.29 µM
same,pIC50,[17],5.19
same,pEC50,"Homo sapiens, BC-1, Lymphoma",5.10
same,GI50,"Homo sapiens, BC-1, Lymphoma, read-out: Cell Count GI50",7.93 µM
same,pIC50,"Homo sapiens, BC-1, Lymphoma",5.10
same,pEC50,[18],5.07
same,GI50,"Homo sapiens, BCP-1, BCP-1, Lymphoma, read-out: Cell Count GI50",8.4 µM
same,pIC50,[18],5.07
same,pEC50,[19],5.16
same,GI50,"Homo sapiens, BE(2)-C, BE(2)C, CNS - Neuroblastoma, read-out: Cell Count GI50",7.48 µM
same,pIC50,[19],5.12
same,pEC50,[20],5.10
same,GI50,"Homo sapiens, BFTC-905, BFTC-905, Bladder, read-out: Cell Count GI50",8.01 µM
same,pIC50,[20],5.10
same,pEC50,[21],4.85
same,GI50,"Homo sapiens, BHT-101, BHT-101, Endocrine - Thyroid, read-out: Cell Count GI50",13.9 µM
same,pIC50,[21],4.85
same,pEC50,[22],4.72
same,GI50,"Homo sapiens, BM-1604, BM-1604, Prostate, read-out: Cell Count GI50",18.9 µM
same,pIC50,[22],4.72
same,pEC50,[23],< 4.52
same,GI50,"Homo sapiens, BPH-1, BPH1, Prostate, read-out: Cell Count GI50",> 30 µM
same,pIC50,[23],< 4.52
same,pEC50,[24],4.91
same,GI50,"Homo sapiens, BT-20, BT20, Breast, read-out: Cell Count GI50",12.3 µM
same,pIC50,[24],4.90
same,pEC50,"Homo sapiens, BT-474, BT474, Breast",< 4.52
